One compound from patent publication US12280040B2, “Compositions and methods of a dihydroisoxazole compound that reduces ectoparasite infestations on fish” (EVAH Atlantic Inc., priority 2023, dated 2025) can be followed below.

In this assay the test system is copepodid stage of sea lice. Briefly: Bath test against copepodid stage of sea lice. Type of assay: in vivo. The following applies: in a bath at similar dosage. From the text: While compounds in this class act with similar modes of action (in this case on the gamma-aminobutyric acid (GABA) and glutamate gated chloride channels), differences do exist among them that influence pharmacological activity.

In the case of `C#CCNC(=O)CNC(=O)c1sc(C2=NOC(c3cc(Cl)cc(Cl)c3)(C(F)(F)F)C2)cc1C` (stereo not shown), the “activity against the copepodid stage of sea lice” value is “inactive”.
